Here are results for 72 molecules from patent US11512080B2, “CRBN ligands and uses thereof” (Kymera Therapeutics, Inc., priority 2018, dated 2022).

Where only a bound is given, the exact number is not on record here.

His-tagged CRBN-DDB1 complex, sequence (Q96SW2 whole entry): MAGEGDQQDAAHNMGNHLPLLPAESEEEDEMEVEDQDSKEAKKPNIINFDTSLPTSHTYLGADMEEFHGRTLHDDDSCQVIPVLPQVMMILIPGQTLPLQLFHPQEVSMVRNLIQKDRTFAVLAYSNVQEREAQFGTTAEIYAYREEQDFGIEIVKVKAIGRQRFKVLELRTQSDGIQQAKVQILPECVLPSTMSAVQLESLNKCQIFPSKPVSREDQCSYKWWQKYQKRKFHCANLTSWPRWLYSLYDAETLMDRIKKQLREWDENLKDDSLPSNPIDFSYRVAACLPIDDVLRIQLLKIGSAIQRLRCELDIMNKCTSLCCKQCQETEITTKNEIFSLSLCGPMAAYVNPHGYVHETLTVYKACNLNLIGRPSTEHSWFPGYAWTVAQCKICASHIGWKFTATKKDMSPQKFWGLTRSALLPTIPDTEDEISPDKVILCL
His-tagged CRBN-DDB1 complex, sequence (Q16531 whole entry partner): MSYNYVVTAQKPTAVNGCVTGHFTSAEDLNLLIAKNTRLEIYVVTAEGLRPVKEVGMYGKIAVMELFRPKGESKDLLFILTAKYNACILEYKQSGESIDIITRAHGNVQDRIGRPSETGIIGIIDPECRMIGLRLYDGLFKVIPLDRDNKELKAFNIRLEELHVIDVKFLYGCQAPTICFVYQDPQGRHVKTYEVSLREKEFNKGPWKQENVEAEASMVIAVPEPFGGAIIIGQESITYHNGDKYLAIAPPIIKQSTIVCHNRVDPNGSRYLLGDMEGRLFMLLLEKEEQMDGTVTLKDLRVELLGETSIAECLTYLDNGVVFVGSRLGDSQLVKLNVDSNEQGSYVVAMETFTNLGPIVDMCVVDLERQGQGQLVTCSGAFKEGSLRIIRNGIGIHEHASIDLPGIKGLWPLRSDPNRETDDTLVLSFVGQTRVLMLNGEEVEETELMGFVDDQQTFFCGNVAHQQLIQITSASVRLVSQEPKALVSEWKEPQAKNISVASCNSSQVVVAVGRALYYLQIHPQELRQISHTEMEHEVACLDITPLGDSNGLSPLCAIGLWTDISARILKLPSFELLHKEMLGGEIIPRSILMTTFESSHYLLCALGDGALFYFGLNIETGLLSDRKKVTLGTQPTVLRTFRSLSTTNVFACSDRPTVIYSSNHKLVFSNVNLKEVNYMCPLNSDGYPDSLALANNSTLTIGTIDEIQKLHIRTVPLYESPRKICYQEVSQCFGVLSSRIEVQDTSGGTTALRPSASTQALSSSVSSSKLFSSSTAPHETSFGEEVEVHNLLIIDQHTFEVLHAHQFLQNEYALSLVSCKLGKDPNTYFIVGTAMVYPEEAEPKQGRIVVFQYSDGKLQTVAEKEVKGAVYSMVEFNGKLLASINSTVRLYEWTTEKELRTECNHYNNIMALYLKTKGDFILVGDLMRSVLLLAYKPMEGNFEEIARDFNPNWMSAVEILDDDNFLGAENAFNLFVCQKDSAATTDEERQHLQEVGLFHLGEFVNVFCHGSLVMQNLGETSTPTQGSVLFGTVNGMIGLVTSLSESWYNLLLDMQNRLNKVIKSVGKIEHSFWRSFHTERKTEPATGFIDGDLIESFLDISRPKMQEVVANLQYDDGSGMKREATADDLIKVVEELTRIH

For one assay, the target named is His-tagged CRBN-DDB1 complex (Homo sapiens (Human), UniProt Q96SW2). Briefly: Time-Resolved Fluorescence Resonance Energy Transfer (TR-FRET) assay. In kind it is binding. As to conditions: competition with Cy5-labeled thalidomide (8 nM), 1 hour at room temperature; read-out: CRBN HTRF IC50. The procedure:
The mixture were incubated at room temperature for 1 hour. […] Quantitative loss of FRET efficiency as a function of compound concentrations was fitted by a four-parameter Logistic Function using GraphPad Prism 7.0 and the IC50 values were reported for each compound.
The compound numbers correspond to the compound numbers in Table 1.
Regarding `O=C1CCC(Sc2nc3ccc(Cl)cc3[nH]2)C(=O)N1` (stereo not drawn) [Compound I-8], the half-inhibitory concentration (IC50) was in the range of 1 to 10 µM.
Still for that read-out and setting: then `O=c1ccn(-c2ccccn2)c(=O)[nH]1` [Compound I-28, 1-(pyridin-2-yl)pyrimidine-2,4(1H,3H)-dione], with greater than 100 µM; and `Cn1c(=O)n(C2SC(=O)NC2=O)c2ccccc21` (stereo not drawn) [Compound I-39], with greater than 100 µM.
The same measure, in the same setting: then `Cn1cc(C2SC(=O)NC2=O)c2ccccc21` (stereo not drawn) [Compound I-71, 5-(1-Methyl-1H-indol-3-yl)thiazolidine-2,4-dione], with greater than 100 µM.
For `Cn1ccnc1SC1CCC(=O)NC1=O` (stereo not drawn) [Compound I-73], the IC50 is greater than 100 µM.
As for `Cn1ccc(N2CCC(=O)NC2=O)n1` [Compound I-76], the IC50 is greater than 100 µM.
In the case of `O=C1CN(C2SC(=O)NC2=O)CCN1` (stereo not drawn) [Compound I-77, 5-(3-Oxopiperazin-1-yl)thiazolidine-2,4-dione], the IC50 is greater than 100 µM.
Turning to `Cn1nc(C2SC(=N)NC2=O)c2ccccc21` (stereo not drawn) [Compound I-81, 2-Imino-5-(1-methyl-1H-indazol-3-yl)thiazolidin-4-one], the IC50 is greater than 100 µM.
The same measure, in the same setting: then `O=C1NC(=O)C(N2CCN(c3ccccc3)CC2=O)S1` (stereo not drawn) [Compound I-82, 5-(2-Oxo-4-phenylpiperazin-1-yl)thiazolidine-2,4-dione], with greater than 100 µM; and `O=C1CCC(SC2CCCCC2)C(=O)N1` (stereo not drawn) [Compound I-116], with greater than 100 µM.

Staying with this assay, now noted: read-out: CRBN HTRF IC50.
Turning to `O=C1CCC(Sc2ccccc2)C(=O)N1` (stereo not drawn) [Compound I-4, 3-(phenylthio)piperidine-2,6-dione], the 50% inhibitory concentration (IC50) was 10 to 100 µM.
With `O=C1CCC(Sc2ccccn2)C(=O)N1` (stereo not drawn) [Compound I-6, 3-(pyridin-2-ylthio)piperidine-2,6-dione], the half-inhibitory concentration (IC50) lay in the range of 10 to 100 µM.
Same read-out and setting: the figure for `O=C1CCC(Sc2ccc(F)cc2)C(=O)N1` (stereo not drawn) [Compound I-7] is 10 to 100 µM.
Still for that read-out and setting: then `COc1ccc(SC2CCC(=O)NC2=O)cc1` (stereo not drawn) [Compound I-9, 3-((4-methoxyphenyl)thio)piperidine-2,6-dione], with 10 to 100 µM; and `O=C1CCC(Sc2ccc(C(=O)O)cc2)C(=O)N1` (stereo not drawn) [Compound I-10, 4-((2,6-dioxopiperidin-3-yl)thio)benzoic acid], with 10 to 100 µM; and `CCn1c(SC2CCC(=O)NC2=O)nc2ccccc21` (stereo not drawn) [Compound I-11, 3-((1-ethyl-1H-benzo[d]imidazol-2-yl)thio)piperidine-2,6-dione], with 1 to 10 µM.
For `Cn1c(SC2CCC(=O)NC2=O)nc2ccccc21` (stereo not drawn) [Compound I-12, 3-(1-Methyl-1H-benzoimidazol-2-ylsulfanyl)-piperidine-2,6-dione], the IC50 was in the range of 10 to 100 µM.
For `CC(=O)Nc1ccc(SC2CCC(=O)NC2=O)cc1` (stereo not drawn) [Compound I-13, N-[4-(2,6-Dioxo-piperidin-3-ylsulfanyl)-phenyl]-acetamide], the half-maximal inhibitory concentration (IC50) fell in the range of 10 to 100 µM.
Same read-out and setting: the figure for `Nc1ccc(SC2CCC(=O)NC2=O)cc1` (stereo not drawn) [Compound I-14, 3-(4-Amino-phenylsulfanyl)-piperidine-2,6-dione] is 10 to 100 µM.
On the same count and under the same terms, then `O=C1CCC(Sc2ccc(Cl)cc2)C(=O)N1` (stereo not drawn) [Compound I-15, 3-((4-chlorophenyl)thio)piperidine-2,6-dione], with 10 to 100 µM; and `O=C1CCC(Sc2ccc(C(F)(F)F)cc2)C(=O)N1` (stereo not drawn) [Compound I-16, 3-((4-(trifluoromethyl)phenyl)thio)piperidine-2,6-dione], with 10 to 100 µM.
The same measure, in the same setting: then `CCc1ccc(SC2CCC(=O)NC2=O)cc1` (stereo not drawn) [Compound I-17, 3-((4-ethylphenyl)thio)piperidine-2,6-dione], with 1 to 10 µM.
As to `O=C1CCN(Cc2ccccc2)C(=O)N1` [Compound I-24, 1-Benzyl-dihydro-pyrimidine-2,4-dione], the IC50 fell in the range of 10 to 100 µM.
Still for that read-out and setting: then `O=c1ccn(-c2ccccc2)c(=O)[nH]1` [Compound I-27, 1-phenylpyrimidine-2,4(1H,3H)-dione], with 10 to 100 µM.
Turning to `O=C1NC(=O)C(N2CC(c3ccccc3)OC2=O)S1` (stereo not drawn) [Compound I-38], the IC50 fell in the range of 10 to 100 µM.
Consider `O=C1CCC(Sc2ccncc2)C(=O)N1` (stereo not drawn) [Compound I-62], for which the half-maximal inhibitory concentration (IC50) lay in the range of 10 to 100 µM.
On the same count and under the same terms, the figure for `CC(C)(C)n1c(SC2CCC(=O)NC2=O)nc2ccccc21` (stereo not drawn) [Compound I-63, 3-((1-(tert-Butyl)-1H-benzo[d]imidazol-2-yl)thio)piperidine-2,6-dione] is 10 to 100 µM; for `CCc1ccc([S+]([O-])C2CCC(=O)NC2=O)cc1` (stereo not drawn) [Compound I-64, 3-((4-ethylphenyl)sulfinyl)piperidine-2,6-dione] it is 10 to 100 µM; for `CCc1ccc(S(=O)(=O)C2CCC(=O)NC2=O)cc1` (stereo not drawn) [Compound I-65, 3-((4-ethylphenyl)sulfonyl)piperidine-2,6-dione] it is 10 to 100 µM.
The same measure, in the same setting: then `Cc1ccc(SC2CCC(=O)NC2=O)cc1` (stereo not drawn) [Compound I-66], with 10 to 100 µM.
With `N#Cc1ccc(SC2CCC(=O)NC2=O)cc1` (stereo not drawn) [Compound I-67, 4-((2,6-Dioxopiperidin-3-yl)thio)benzonitrile], the IC50 was 10 to 100 µM.
Still for that read-out and setting: the figure for `CC(C)c1ccc(SC2CCC(=O)NC2=O)cc1` (stereo not drawn) [Compound I-68] is 1 to 10 µM; for `Cc1cccc(SC2CCC(=O)NC2=O)c1` (stereo not drawn) [Compound I-69] it is 10 to 100 µM.
The same measure, in the same setting: then `O=C1CCC(Sc2nc3ccccc3n2C2CC2)C(=O)N1` (stereo not drawn) [Compound I-70, 3-((1-Cyclopropyl-1H-benzo[d]imidazol-2-yl)thio)piperidine-2,6-dione], with 10 to 100 µM; and `O=C1CCC(Sc2cccs2)C(=O)N1` (stereo not drawn) [Compound I-72], with 10 to 100 µM; and `O=C1CCC(Sc2ccccc2O)C(=O)N1` (stereo not drawn) [Compound I-74], with 1 to 10 µM.
Still for that read-out and setting: then `COc1ccccc1SC1CCC(=O)NC1=O` (stereo not drawn) [Compound I-75], with 10 to 100 µM; and `CCc1ccc(OC2CCC(=O)NC2=O)cc1` (stereo not drawn) [Compound I-78, 3-(4-ethylphenoxy)piperidine-2,6-dione], with 1 to 10 µM; and `Cc1ccc(SC2CCC(=O)NC2=O)c(C)c1` (stereo not drawn) [Compound I-79], with 1 to 10 µM.
As to `Cc1occc1SC1CCC(=O)NC1=O` (stereo not drawn) [Compound I-80], the IC50 lay in the range of 10 to 100 µM.
`O=C1CCC(Sc2ncccn2)C(=O)N1` (stereo not drawn) [Compound I-83]: the IC50 lay within 10 to 100 µM.
For the molecule `CCCCc1ccc(SC2CCC(=O)NC2=O)cc1` (stereo not drawn) [Compound I-84], the half-maximal inhibitory concentration (IC50) lay in the range of 1 to 10 µM.
Still for that read-out and setting: then `CN(C)c1ccc(SC2CCC(=O)NC2=O)cc1` (stereo not drawn) [Compound I-85], with 1 to 10 µM; and `CCOc1cccc(SC2CCC(=O)NC2=O)c1` (stereo not drawn) [Compound I-86], with 1 to 10 µM; and `COc1cccc(SC2CCC(=O)NC2=O)c1` (stereo not drawn) [Compound I-87], with 1 to 10 µM.
As to `Cn1nc(N2CCC(=O)NC2=O)cc1-c1ccccc1` [Compound I-88, 1-(1-Methyl-5-phenyl-1H-pyrazol-3-yl)dihydropyrimidine-2,4(1H,3H)-dione], the IC50 lay in the range of 10 to 100 µM.
The same measure, in the same setting: the figure for `Cc1cc(C)nc(SC2CCC(=O)NC2=O)n1` (stereo not drawn) [Compound I-89] is 10 to 100 µM; for `O=C1CCC(Sc2ccc(Cl)cn2)C(=O)N1` (stereo not drawn) [Compound I-90] it is 1 to 10 µM; for `O=C1CCC(Sc2cc(C(F)(F)F)cc(C(F)(F)F)c2)C(=O)N1` (stereo not drawn) [Compound I-92] it is 10 to 100 µM.
Still for that read-out and setting: the figure for `O=C1CCC(Sc2nc(=O)cc(-c3ccccc3)[nH]2)C(=O)N1` (stereo not drawn) [Compound I-93] is 10 to 100 µM; for `O=C1CCC(Sc2nc3ccc(Cl)cc3[nH]2)C(=O)N1` (stereo not drawn) [Compound I-94] it is 1 to 10 µM.
On the same count and under the same terms, then `Cc1cc(O)nc(SC2CCC(=O)NC2=O)n1` (stereo not drawn) [Compound I-95, 3-((4-hydroxy-6-methylpyrimidin-2-yl)thio)piperidine-2,6-dione], with 10 to 100 µM.
For the molecule `O=C1CCC(Sc2nc3ccccc3[nH]2)C(=O)N1` (stereo not drawn) [Compound I-96], the IC50 was in the range of 10 to 100 µM.
In the case of `O=C1CCC(Sc2cccc3cccnc23)C(=O)N1` (stereo not drawn) [Compound I-97], the IC50 was 1 to 10 µM.
Same read-out and setting: then `O=C1CCC(Sc2ccc(C(F)(F)F)cn2)C(=O)N1` (stereo not drawn) [Compound I-98], with 10 to 100 µM.
As for `O=C1CCC(Sc2ccccc2OC(F)(F)F)C(=O)N1` (stereo not drawn) [Compound I-99], the IC50 was 1 to 10 µM.
Same read-out and setting: the figure for `O=C1CCC(Sc2cc(Cl)ccc2Cl)C(=O)N1` (stereo not drawn) [Compound I-101] is 1 to 10 µM; for `O=C1CCC(Sc2cc(Cl)c(Cl)cc2Cl)C(=O)N1` (stereo not drawn) [Compound I-102] it is 10 to 100 µM.
Same read-out and setting: then `O=C1CCC(Oc2ccccc2)C(=O)N1` (stereo not drawn) [Compound I-103], with 10 to 100 µM.
On the same count and under the same terms, the figure for `O=C1CCC(Sc2ccc(Br)cn2)C(=O)N1` (stereo not drawn) [Compound I-104] is 1 to 10 µM; for `Cn1ccc(CN2CCC(=O)NC2=O)n1` [Compound I-106] it is 10 to 100 µM.
As to `O=C1CCC(Sc2cccc(Br)c2)C(=O)N1` (stereo not drawn) [Compound I-108, 3-((3-Bromophenyl)thio)piperidine-2,6-dione], the IC50 was 1 to 10 µM.
The same measure, in the same setting: the figure for `O=C1CCC(Sc2ccccc2C(F)(F)F)C(=O)N1` (stereo not drawn) [Compound I-109] is 10 to 100 µM; for `O=C1CCC(Sc2cccc[n+]2[O-])C(=O)N1` (stereo not drawn) [Compound I-110] it is 1 to 10 µM; for `O=C1CCC(Sc2cc(C(=O)O)ccn2)C(=O)N1` (stereo not drawn) [Compound I-111] it is 1 to 10 µM.
Same read-out and setting: then `O=C1CCC(Sc2ccc(CO)cc2)C(=O)N1` (stereo not drawn) [Compound I-112], with 10 to 100 µM.
On to `Nc1cc(=O)nc(SC2CCC(=O)NC2=O)[nH]1` (stereo not drawn) [Compound I-113], for which the IC50 lay in the range of 10 to 100 µM.
Same read-out and setting: then `O=C1CCC(Sc2ccc(F)c(F)c2)C(=O)N1` (stereo not drawn) [Compound I-114], with 10 to 100 µM.
As to `CC(C)(C)c1ccc(OC2CCC(=O)NC2=O)cc1` (stereo not drawn) [Compound I-115], the half-inhibitory concentration (IC50) fell in the range of 1 to 10 µM.
With `N#Cc1ccccc1SC1CCC(=O)NC1=O` (stereo not drawn) [Compound I-117], the IC50 was 10 to 100 µM.
Same read-out and setting: the figure for `Cn1c(=O)c(C2SC(=O)NC2=O)cc2ccccc21` (stereo not drawn) [Compound I-118, 5-(1-methyl-2-oxo-1,2-dihydroquinolin-3-yl)thiazolidine-2,4-dione] is 10 to 100 µM.
On the same count and under the same terms, then `O=C1CCC(Oc2ccc3ccccc3c2)C(=O)N1` (stereo not drawn) [Compound I-119], with 1 to 10 µM.
